# Experimental data taken from patent US20120316199A1, “COMPOSITIONS AND METHODS FOR TREATING, CONTROLLING, REDUCING, OR AMELIORATING INFLAMMATORY PAIN” (priority 2011, published 2012).
# Values joined by “and” are separate entries in the source; they are usually repeats but may differ in a detail not shown here. Identical values can stand only once.
# Experiments:
# Type in all cases: in vivo, Rabbit (New Zealand)
# [1] = test system: PGE2 in the aqueous humor; experiment: Prostaglandin E2 (PGE2) measurement in aqueous humor, rabbit paracentesis model; details: 0.5% formulation
# Experimental: (§1) Each rabbit was placed in a restraint device and tagged with the alphanumeric code. The formulations were instilled (50 μl) into the conjunctival sac of both eyes 180, 120, 90 and 30 min before the first paracentesis; then 15, 30, 90 min after the first paracentesis. To perform the first paracentesis the animals were anaesthetized by intravenous injection of 5 mg/kg Zoletil® (Virbac; 2.5 mg/kg tiletamine HCl and 2.5 mg/kg zolazepam HCl) and one drop of local anesthetic (Novesina®, Novartis) was administered to the eye. Anterior chamber paracentesis was performed with a 26 G needle attached to a tuberculin syringe; the needle was introduced into the anterior chamber through the cornea, taking care not to damage the tissues. Two hours after the first paracentesis, the animals were sacrificed with 0.4 ml Tanax® (Intervet International B.V.) and the second paracentesis was performed. About 100 μl of aqueous humor were removed at the second paracentesis. Aqueous humor was immediately split in four aliquots and stored at −80° C. until analysis. Then both eyes were enucleated and the iris-ciliary body was carefully excised, placed in polypropylene tubes, and stored at −80° C. until analysis.
# For the quantitative determination of PGE2 in the aqueous humor we used the PGE2 Immunoassay kit (R&D Systems; Cat. No. KGE004; Lot. No. 240010). Eleven microliters or 16 μl of aqueous humor were diluted to 110 μl or 160 μl with the calibrator diluent solution provided with the kit. One hundred microliters of samples and of standards were load into a 96-well plate and recorded in a plate layout. Samples were treated following the assay procedure described in the kit. A microplate reader (GDV, Italy; model DV 990 B/V6) set at 450 nm (wavelength correction at 540 nm) was used for making the calibration and analyzing the samples.
# (§2) Pupillary diameter, PGE2, protein, PMN, and MPO were expressed as mean±SEM. Statistical analysis was performed using one way ANOVA followed by a Newman-Keuls post hoc test. Clinical score was expressed as % of eyes and the statistical analysis was performed using Kruskal-Wallis followed by a Dunn post hoc test. P<0.05 was considered statistically significant in both cases. Prism 4 software (GraphPad Software, Inc.) was used for the analysis and graphs.
# [2] = test system: iris and conjunctival vessels, anterior chamber; experiment: Clinical evaluation by slit lamp (clinical score), rabbit paracentesis model; design: key to Clinical Score −180 min / Clinical Score −5 min / Clinical Score +115 min: 0=normal; 1=discrete dilatation of iris and conjunctival vessels; 2=moderate dilatation of iris and conjunctival vessels; 3=intense iridal hyperemia with flare in the anterior chamber; 4=intense iridal hyperemia with flare in the anterior chamber and presence of fibrinous exudates; details: 0.5% formulation
# [3] = test system: leukocytes (PMN) in aqueous humor; experiment: Leukocytes (PMN) measurement in aqueous humor, rabbit paracentesis model; details: 0.5% formulation; second paracentesis; group mean
# Experimental: as §1
# For the determination of the number of leukocytes we used a haernocytometer (Improved Neubauer Chamber; Bright-line, Hausser Scientific) and a Polyvar 2 microscope (Reichert-Jung).
# as §2
# [4] = test system: MPO activity in iris-ciliary body; experiment: Myeloperoxidase (MPO) activity in iris-ciliary body, rabbit paracentesis model
# Experimental: as §1
# The activity of MPO was measured as previously described by Williams et al.[5] The iris-ciliary bodies were carefully dried, weighed and immersed in 1 ml of hexa-decyl-trimethyl-ammonium bromide solution. Then, the samples were sonicated for 10 sec on ice by a ultrasound homogenizer (HD 2070, Bandelin electronic), freeze-thawed three times, sonicated for 10 sec and centrifuged at 14,000 g for 10 min to remove cellular debris. An aliquot of the supernatant (40-200 μl) was diluted to 3 ml with the o-dianisidine 2HCl/H2O2 solution. The change in absorbance at 460 nm was continuously monitored for 5 min by a spectrophotometer (UV/Vis Spectrometer Lambda EZ 201; Perkin Elmer). The slope of the line (Δ/min) was determined for each sample and used to calculate the number of units of MPO in the tissue as follows:
# Values were expressed as units of MPO/g of tissue.
# as §2
# [5] = test system: protein concentration in the aqueous humor; experiment: Protein measurement in aqueous humor, rabbit paracentesis model; details: 0.5% formulation, second paracentesis
# Experimental: as §1
# For protein concentration determination in the aqueous humor we used the Protein Quantification Kit (Fluka; Cat. No. 77371; Lot. No. 1303129). Five microliters of aqueous humor were diluted to 100 μl with water. Twenty microliters of samples and of standards were load into a 96-well plate and recorded in a plate layout. Samples were treated following the assay procedure described in the kit. A microplate reader (GDV, Italy; model DV 990 B/V6) set at 670 nm was used for making the calibration and analyzing the samples.
# as §2
# pupillary diameter = experiment: Pupillary diameter measurement, rabbit paracentesis model; details: 0.5% formulation
# [6] = 5 min before the first paracentesis, raw data per eye
# [7] = 5 min before the second paracentesis, raw data per eye
structure (smiles),measurement,setting,value
"CCOC(=O)O[C@]1(C(=O)OCCl)CC[C@H]2[C@@H]3CCC4=CC(=O)C=C[C@]4(C)[C@H]3[C@@H](O)C[C@@]21C [LE, loteprednol etabonate]","PGE2 in aqueous humor, statistical significance versus CTR",[1]; p<0.05,statistically significant versus CTR
same,"PGE2 level in aqueous humor, Mean","[1]; second paracentesis, group mean",0.672 ng/mL
same,Clinical Score −5 min,[2]; [6],0
same,Clinical Score +115 min,[2]; [7],2 and 1
same,Percentage of eyes with clinical score 1,"[2]; +115 min, N=8 eyes",75%
same,Percentage of eyes with clinical score 2,"[2]; +115 min, N=8 eyes",25%
same,Clinical Score −180 min,"[2]; basal, raw data per eye",0
same,"Clinical score, difference versus CTR (vehicle)","[2]; p<0.05, Kruskal-Wallis, Dunn",significant difference versus CTR
same,Percentage of eyes with clinical score 0,"[2]; −5 min, N=8 eyes",100%
same,Percentage of eyes with clinical score 0,"[2]; −180 min (basal), N=8 eyes",100%
same,"PMN numbers in aqueous humor, Mean",[3],28.333 number/μl
same,MPO activity in iris-ciliary body,"[4]; 0.5% LE, individual samples collected after the second paracentesis",1.01 Unit/g
same,"MPO activity in iris-ciliary body, Mean","[4]; 0.5% formulation, after the second paracentesis, group mean",0.661 MPO Unit/g
same,"Protein level in aqueous humor, Mean",[5]; group mean,33.905 mg/mL
same,"Protein level in aqueous humor, raw data",[5]; per eye,36.14 mg/mL and 39.10 mg/mL and 34.69 mg/mL and 26.10 mg/mL and 26.30 mg/mL and 28.16 mg/mL and 40.90 mg/mL and 39.85 mg/mL
same,Pupillary diameter T2: −5 min,pupillary diameter; [6],6.0 mm and 6.5 mm
same,Pupillary diameter T3: +115 min,pupillary diameter; [7],4.5 mm and 5.0 mm and 5.5 mm and 6.0 mm
same,Pupillary diameter T1: −180 min,"pupillary diameter; basal, raw data per eye",6.0 mm and 6.5 mm
same,Mean (mm) Δ(T3 − T1) of pupillary diameter,"pupillary diameter; group mean, n=8 eyes",−0.9 mm
